This is an account of results in patent US4866066A, “Thiomethylpyridine derivatives and their use for eliciting a bronchosecretolytic or mucolytic response” (Ludwig Heumann & Co. GmbH, priority 1982, dated 1989).

Where a name gives a salt, the structure may show the parent alone. Read-outs that look alike come from different tables or passages of the source.

For orientation: ED50 means the midpoint of the dose-response relation. The term LD50 denotes the dose at which mortality reaches 50%. Higher therefore signals a less toxic substance.

Data set [1] has as its system tracheal secretion of phenol red. The data set can be described thus: Secretostimulating activity: tracheal secretion of phenol red after oral administration to non-anaesthetized mice. Format: in vivo. The following applies: for ED50: Table I, non-anaesthetized mice, promotion of tracheal phenol red secretion, calculated from regression curves. The protocol:
The increase in the tracheal secretion of phenol red is a measure of bronchosecretolytic activity. The relevant activity of the test substances was studied after oral administration to non-anaesthetized mice. The ED50 -values indicated in Table I were calculated using the regression curves.

The test system of the next data set is bronchial mucus. The data set can be described thus: Mucosecretolytic activity in dogs: viscosity of bronchial mucus after i.v. administration. Format: in vivo, mongrel dogs. The settings on record: for Viscosity, 1 hour after administration: 1 hour after 10 mg/kg i.v.; for Viscosity, 1 hour after administration / Viscosity, initial value: mucus 1% w/v in 0.1M tris-buffer pH 7; for reduction in the viscosity of the bronchial mucus (in words): i.v., dogs, identical quantity by weight; for Viscosity, initial value: immediately before administration, 10 mg/kg i.v., baseline. As for the experimental part: Bronchial mucus was removed by means of a bronchoscope from anaesthetized mongrel dogs immediately before and 1 hour after intravenous administration of the test substances and taken up in phosphate buffer. After dialyzation and freeze-drying, the mucus samples were taken up in 0.1M tris-buffer (pH 7) (final concentration 1% w/v). Viscosity was measured by means of a rotary viscosimeter (as manufactured by Contraves, Stuttgart).

A further data set relates to mice. The settings on record: p.o., under identical conditions; cited from earlier work.
Data set [2] in a line: Acute oral toxicity in mice. The following applies: mouse, in vivo, p.o. The text has this:
The compounds according to the invention show low oral toxicity in acute tests.

Regarding “2-(methylthio-3-pyridyl)-oxazolo(4,5-c) pyridine dihydrochloride [Example 10]”, the ED50 in data set [1] is 12 mg/kg.

Regarding `Nc1c(Br)cc(Br)cc1CN[C@H]1CC[C@H](O)CC1` [Ambroxol, trans-4-(2-amino-3,5-dibromobenzyl)-aminocyclohexanol, reference compound], the ED50 in data set [1] (Mus musculus, read-out: ED50) is 250 mg/kg. For the same molecule, in the data set with bronchial mucus, the “Viscosity, 1 hour after administration” value turned out to be 2.3 mPa × s; the “reduction in the viscosity of the bronchial mucus (in words)” value is recorded as “distinct reduction in the viscosity of the bronchial mucus”; the “Viscosity, initial value” is listed as 3.8 mPa × s. For the same molecule, the “toxicity compared with 2-(pyridyl-3-methylthio)-pyrimidine hydrochloride (in words)” value in the data set on mice is on record as “slidingly less toxic”.

Take `c1cnc(SCc2cccnc2)nc1` [Example 1, 2-(pyridyl-3-methylthio)-pyrimidine hydrochloride]: the ED50 in data set [1] (Mus musculus, read-out: ED50) is 1.5 mg/kg. In addition, in data set [1] (mice, among compounds of Table I), the “activity in promoting tracheal secretion of phenol red (in words)” value was “strongest activity”. Moreover, the “effect in promoting the secretion of phenol red relative to Ambroxol” value in data set [1] (mice, times stronger than Ambroxol) is “approximately 160 times”. Besides, in the data set on bronchial mucus, the “Viscosity, 1 hour after administration” value is given as 1.2 mPa × s; the “reduction in the viscosity of the bronchial mucus (in words)” value is listed as “even more distinct reduction in the viscosity of the bronchial mucus”; the “Viscosity, initial value” was determined as 3.9 mPa × s. The molecule further returned an LD50 in data set [2] of 1160 mg/kg.

Consider `c1ccc(CSc2ncccn2)nc1` [Example 2, 2-(pyridyl-2-methylthio)-pyrimidine hydrochloride], for which the median effective dose (ED50) in data set [1] (Mus musculus, read-out: ED50) was 400 mg/kg.

`Cc1ccnc(SCc2cccnc2)n1` [Example 3, 2-(pyridyl-3-methylthio)-4-methyl-pyrimidine hydrochloride]: the ED50 in data set [1] (Mus musculus, read-out: ED50) is 10 mg/kg.

Regarding `Cc1cc(C)nc(SCc2cccnc2)n1` [Example 4, 2-(pyridyl-3-methylthio)-4,6-dimethyl-pyrimidine hydrochloride], in data set [1] (Mus musculus, read-out: ED50), the ED50 was 12 mg/kg.

`c1ccc(SCc2cccnc2)nc1` [Example 5, 2-(pyridyl-3-methylthio)-pyridine dihydrochloride]: the ED50 in data set [1] (Mus musculus, read-out: ED50) is 2.1 mg/kg.

In the case of `c1ccc(CSc2ccccn2)nc1` [Example 6, 2-(pyridyl-2-methylthio)-pyridine dihydrochloride], in data set [1] (Mus musculus, read-out: ED50), the ED50 was 6.3 mg/kg.

In the case of `c1cncc(CSc2nc3ccccc3o2)c1` [Example 7], the ED50 in data set [1] (Mus musculus, read-out: ED50) is 15 mg/kg.

Turning to `Cc1ccc2nc(SCc3cccnc3)oc2c1` [Example 8, hydrochloride], the ED50 in data set [1] (Mus musculus, read-out: ED50) was 15 mg/kg.

With `c1ccc(CSc2nc3ccccc3o2)nc1` [Example 9, 2-(methylthio-2-pyridyl)-benzoxazole oxalate], in data set [1] (Mus musculus, read-out: ED50), the ED50 was 45 mg/kg.
